{"source": "patent US7964104B2", "about": "“Active antiseptic water or active water-based fluid, and production method and apparatus for the same” (Japan Techno Co., Ltd., priority 2003, dated 2011)", "conditions": "level of nitrite and sulfite ions in the water"}
{"substance": "nitrite and sulfite ions", "values": [{"measurement": "Level at which the antiseptic effect is inadequate", "result": "less than 0.08 mg/L"}]}
